Measured values published in patent US9365522B2, “Pyrazole amide derivative” (AMGEN INC., priority 2015, dated 2016).

Molecular target: T1, human RORγ-LBD (Homo sapiens, UniProt P51449)
T1 construct: made in house; host or cells: E. coli (BL-21)
T1 sequence (P51449 262-518): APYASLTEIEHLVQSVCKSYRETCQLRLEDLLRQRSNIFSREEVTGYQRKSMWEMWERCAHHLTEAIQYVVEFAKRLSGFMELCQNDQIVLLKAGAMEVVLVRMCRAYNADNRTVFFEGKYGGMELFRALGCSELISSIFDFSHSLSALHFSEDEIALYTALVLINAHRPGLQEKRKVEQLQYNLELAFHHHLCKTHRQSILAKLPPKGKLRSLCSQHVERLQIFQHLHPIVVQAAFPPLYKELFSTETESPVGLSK
Test: ROR gamma coactivator peptide recruitment Alphascreen assay (RORγ-LBD binding to GRIP1 coactivator peptide)
Format: biochemical
Settings: 5 nM human RORγ-LBD, 30 nM 7-β-hydroxycholesterol, 50 nM biotinylated GRIP1 coactivator peptide, overnight incubation at room temperature; read-out: result (pIC50, RORγ coactivator peptide recruitment Alphascreen assay) (converted)
Procedure, shortened: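 Alphascreen proximity read-out after overnight room-temperature incubation, yielding pIC50 from 1-in-2 compound series (2.5% DMSO final). Mixture: 50 nM biotin-GRIP1 peptide, 30 nM 7-β-hydroxycholesterol agonist, 5 nM recombinant 6×His:Flag human RORγ-LBD (aa 262-518), 50 mM HEPES pH 7.4.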

IC50 [nM]	Compound
3.55	Cc1ncc(Cl)c(C(=O)CN(C(=O)c2cnn([C@H]3CC[C@](C)(C(=O)O)CC3)c2C(F)(F)F)[C@H]2C[C@@H]3[C@H](C2)C3(C)C)c1Cl [Example 758, trans-4-(4-((2-(3,5-dichloro-2-methyl-3-pyridinyl)-2-oxoethyl)((1R,3r,5S)-6,6-dimethylbicyclo[3.1.0]hex-3-yl)carbamoyl)-5-(trifluoromethyl)-1H-pyrazol-1-yl)-1-methylcyclohexanecarboxylic acid]
3.72	CC1(CN(CC(=O)c2c(Cl)cccc2Cl)C(=O)c2cnn([C@H]3CC[C@](C)(C(=O)O)CC3)c2C(F)(F)F)CC1 [Example 759, trans-4-(4-((2-(2,6-dichlorophenyl)-2-oxoethyl)((1-methylcyclopropyl)methyl)carbamoyl)-5-(trifluoromethyl)-1H-pyrazol-1-yl)-1-methylcyclohexanecarboxylic acid]
2.4	CC1(CN(CC(=O)c2c(Cl)cccc2Cl)C(=O)c2cnn([C@H]3CC[C@](C)(C(=O)O)CC3)c2C(F)(F)F)CCC1 [Example 760, trans-4-(4-((2-(2,6-dichlorophenyl)-2-oxoethyl)((1-methylcyclobutyl)methyl)carbamoyl)-5-(trifluoromethyl)-1H-pyrazol-1-yl)-1-methylcyclohexanecarboxylic acid]
7.94	Cc1cc(Cl)c(C(=O)CN(Cc2cc(F)cc(F)c2)C(=O)c2cnn([C@H]3CC[C@@H](C(=O)O)CC3)c2C(F)(F)F)c(Cl)n1 [Example 761, cis-4-(4-((2-(2,4-dichloro-6-methyl-3-pyridinyl)-2-oxoethyl)(3,5-difluorobenzyl)carbamoyl)-5-(trifluoromethyl)-1H-pyrazol-1-yl)cyclohexanecarboxylic acid]
5.37	Cc1cc(Cl)c(C(=O)CN(Cc2cc(F)cc(F)c2)C(=O)c2cnn([C@H]3CC[C@@](C)(C(=O)O)CC3)c2C(F)(F)F)c(Cl)n1 [Example 762, trans-4-(4-((2-(2,4-dichloro-6-methyl-3-pyridinyl)-2-oxoethyl)(3,5-difluorobenzyl)carbamoyl)-5-(trifluoromethyl)-1H-pyrazol-1-yl)-1-methylcyclohexanecarboxylic acid]
1.62	CC1(C)[C@@H]2C[C@H](N(CC(=O)c3c(Cl)ccc(F)c3Cl)C(=O)c3cnn([C@H]4CC[C@](C)(C(=O)O)CC4)c3C(F)(F)F)C[C@@H]21 [Example 763, trans-4-(4-((2-(2,6-dichloro-3-fluorophenyl)-2-oxoethyl)((1R,3r,5S)-6,6-dimethylbicyclo[3.1.0]hex-3-yl)carbamoyl)-5-(trifluoromethyl)-1H-pyrazol-1-yl)-1-methylcyclohexanecarboxylic acid]
4.37	CC(C)(C)CN(CC(=O)c1c(Cl)ccc(F)c1Cl)C(=O)c1cnn([C@H]2CC[C@](C)(C(=O)O)CC2)c1C(F)(F)F [Example 764, trans-4-(4-((2-(2,6-dichloro-3-fluorophenyl)-2-oxoethyl)(2,2-dimethylpropyl)carbamoyl)-5-(trifluoromethyl)-1H-pyrazol-1-yl)-1-methylcyclohexanecarboxylic acid]
245	CC(C)CCN(CC(=O)c1c(Cl)cncc1Cl)C(=O)c1cnn([C@H]2C[C@@H]3[C@H](C2)[C@@H]3C(=O)O)c1C(F)(F)F [Example 765, (1R,3r,5S,6r)-3-(4-((2-(3,5-dichloro-4-pyridinyl)-2-oxoethyl)(3-methylbutyl)carbamoyl)-5-(trifluoromethyl)-1H-pyrazol-1-yl)bicyclo[3.1.0]hexane-6-carboxylic acid]
32.4	C[C@@H]1C[C@@H](n2ncc(C(=O)N(CCC(F)(F)F)CC(=O)c3c(Cl)cncc3Cl)c2C(F)(F)F)CC[C@@H]1C(=O)O [Example 766, (1S,2R,4S)-4-(4-((2-(3,5-dichloro-4-pyridinyl)-2-oxoethyl)(3,3,3-trifluoropropyl)carbamoyl)-5-(trifluoromethyl)-1H-pyrazol-1-yl)-2-methylcyclohexanecarboxylic acid]
372	C[C@H]1C[C@H](n2ncc(C(=O)N(CCC(F)(F)F)CC(=O)c3c(Cl)cncc3Cl)c2C(F)(F)F)CC[C@H]1C(=O)O [Example 767, (1R,2S,4R)-4-(4-((2-(3,5-dichloro-4-pyridinyl)-2-oxoethyl)(3,3,3-trifluoropropyl)carbamoyl)-5-(trifluoromethyl)-1H-pyrazol-1-yl)-2-methylcyclohexanecarboxylic acid]
3.98	Cc1ncc(Cl)c(C(=O)CN(Cc2cc(F)cc(F)c2)C(=O)c2cnn([C@H]3CC[C@](C)(C(=O)O)CC3)c2C(F)(F)F)c1Cl [Example 768, trans-4-(4-((2-(3,5-dichloro-2-methyl-4-pyridinyl)-2-oxoethyl)(3,5-difluorobenzyl)carbamoyl)-5-(trifluoromethyl)-1H-pyrazol-1-yl)-1-methylcyclohexanecarboxylic acid]
18.6	O=C(CN(CC1(F)CCCC1)C(=O)c1cnn([C@H]2C[C@@H]3[C@H](C2)[C@@H]3C(=O)O)c1C(F)(F)F)c1c(Cl)cccc1Cl [Example 769, (1R,3r,5S,6s)-3-(4-((2-(2,6-dichlorophenyl)-2-oxoethyl)((1-fluorocyclopentyl)methyl)carbamoyl)-5-(trifluoromethyl)-1H-pyrazol-1-yl)bicyclo[3.1.0]hexane-6-carboxylic acid]
42.7	CC(C)(C)CN(CC(=O)c1c(Cl)cncc1Cl)C(=O)c1cnn([C@H]2C[C@@H]3[C@H](C2)[C@@H]3C(=O)O)c1C(F)(F)F [Example 770, (1R,3r,5S,6s)-3-(4-((2-(3,5-dichloro-4-pyridinyl)-2-oxoethyl)(2,2-dimethylpropyl)carbamoyl)-5-(trifluoromethyl)-1H-pyrazol-1-yl)bicyclo[3.1.0]hexane-6-carboxylic acid]
6.31	CC(C)(C)CN(CC(=O)c1c(Cl)cncc1Cl)C(=O)c1cnn([C@H]2C[C@]3(C[C@H](C(=O)O)C3)C2)c1C(F)(F)F (stereo partly drawn) [Example 771, (4r)-6-(4-((2-(3,5-dichloro-4-pyridinyl)-2-oxoethyl)(2,2-dimethylpropyl)carbamoyl)-5-(trifluoromethyl)-1H-pyrazol-1-yl)spiro[3.3]heptane-2-carboxylic acid]
3.72	C[C@H](C(=O)O)[C@H]1C[C@H](n2ncc(C(=O)N(CC(=O)c3c(Cl)cccc3Cl)[C@H]3C[C@@H]4[C@H](C3)C4(C)C)c2C(F)(F)F)C1 [Example 772, (S)-2-((1R,3S)-3-(4-((2-(2,6-dichlorophenyl)-2-oxoethyl)((1R,3r,5S)-6,6-dimethylbicyclo[3.1.0]hexan-3-yl)carbamoyl)-5-(trifluoromethyl)-1H-pyrazol-1-yl)cyclobutyl)propanoic acid]
21.9	C[C@@H]1C[C@@H](n2ncc(C(=O)N(CC(=O)c3c(Cl)cncc3Cl)C[C@@H]3CCC(C)(C)O3)c2C(F)(F)F)CC[C@@H]1C(=O)O [Example 774, (1S,2R,4S)-4-(4-((2-(3,5-dichloro-4-pyridinyl)-2-oxoethyl)(((2S)-5,5-dimethyltetrahydro-2-furanyl)methyl)carbamoyl)-5-(trifluoromethyl)-1H-pyrazol-1-yl)-2-methylcyclohexanecarboxylic acid]
3.02	CC1(CN(CC(=O)c2c(Cl)cncc2Cl)C(=O)c2cnn([C@H]3CC[C@H](CC(=O)O)CC3)c2C(F)(F)F)CCC1 [Example 775, (trans-4-(4-((2-(3,5-dichloro-4-pyridinyl)-2-oxoethyl)((1-methylcyclobutyl)methyl)carbamoyl)-5-(trifluoromethyl)-1H-pyrazol-1-yl)cyclohexyl)acetic acid]
21.9	C[C@]1(C(=O)O)CC[C@H](n2ncc(C(=O)N(CCC3CC3)CC(=O)c3c(Cl)cncc3Cl)c2C(F)(F)F)CC1 [Example 776, trans-4-(4-((2-cyclopropylethyl)(2-(3,5-dichloro-4-pyridinyl)-2-oxoethyl)carbamoyl)-5-(trifluoromethyl)-1H-pyrazol-1-yl)-1-methylcyclohexanecarboxylic acid]
4.27	Cc1cc(Cl)c(C(=O)CN(CCC2CC2)C(=O)c2cnn([C@H]3CC[C@](C)(C(=O)O)CC3)c2C(F)(F)F)c(Cl)c1 [Example 777, trans-4-(4-((2-cyclopropylethyl)(2-(2,6-dichloro-4-methylphenyl)-2-oxoethyl)carbamoyl)-5-(trifluoromethyl)-1H-pyrazol-1-yl)-1-methylcyclohexanecarboxylic acid]
4.47	Cc1cc(F)c(C(=O)CN(CC2(C)CCC2)C(=O)c2cnn([C@H]3CC[C@](C)(C(=O)O)CC3)c2C(F)(F)F)c(Cl)c1 [Example 778, trans-4-(4-((2-(2-chloro-6-fluoro-4-methylphenyl)-2-oxoethyl)((1-methylcyclobutyl)methyl)carbamoyl)-5-(trifluoromethyl)-1H-pyrazol-1-yl)-1-methylcyclohexanecarboxylic acid]
18.2	Cc1cc(Cl)c(C(=O)CN(CCOC(C)(C)C)C(=O)c2cnn([C@H]3CC[C@](C)(C(=O)O)CC3)c2C(F)(F)F)c(Cl)n1 [Example 779, trans-4-(4-((2-(2,4-dichloro-6-methyl-3-pyridinyl)-2-oxoethyl)(2-((2-methyl-2-propanyl)oxy)ethyl)carbamoyl)-5-(trifluoromethyl)-1H-pyrazol-1-yl)-1-methylcyclohexanecarboxylic acid]
